From ChEMBL document CHEMBL3044898, “Alkoxyphenyl methanesulfonamides: synthesis, anti-inflammatory effect, and docking studies” (Med Chem Res, 2012) come the findings set out here.

Molecules are shown by their SMILES.

The subject of data set [1] is Rattus norvegicus. The experiment in a line: Anti-inflammatory activity in Rattus norvegicus Wistar (rat) assessed as inhibition of carrageenan-induced paw edema at 75 mg/kg, po administered 30 min post carrageenan challenge measured at 5 hr relative to control. In kind it is functional. Background: The carrageenan paw model is a standard test of acute inflammation.

Data set [2] concerns Rattus norvegicus. The data set is described as follows: Ulcerogenic activity in Rattus norvegicus Wistar (rat) assessed as length of lesion at 75 mg/kg, po after 6 hr (reference value: 0 mm). The following applies: in vivo. In kind it is toxicity, organism-based. On the set-up: dose 75 mg/kg, route oral.
Data set [3] relates to Rattus norvegicus. The experiment in a line: Anti-inflammatory activity in Rattus norvegicus Wistar (rat) assessed as inhibition of carrageenan-induced paw edema at 25 mg/kg, po administered 30 min post carrageenan challenge measured at 5 hr relative to control. In kind it is functional.
Data set [4] deals with Rattus norvegicus. The experiment in a line: Ulcerogenic activity in Rattus norvegicus Wistar (rat) assessed as length of lesion at 25 mg/kg, po after 6 hr (reference value: 0 mm). In kind it is toxicity, organism-based. On the set-up: dose 25 mg/kg, route oral. The following applies: in vivo.
In data set [5] the test system is Rattus norvegicus. The data set is described as follows: Anti-inflammatory activity in Rattus norvegicus Wistar (rat) assessed as inhibition of carrageenan-induced paw edema at 5 mg/kg, po administered 30 min post carrageenan challenge measured at 5 hr relative to control. In kind it is functional.
Data set [6] relates to Rattus norvegicus. The data set is described as follows: Anti-inflammatory activity in po dosed Rattus norvegicus Wistar (rat) assessed as inhibition of carrageenan-induced paw edema administered 30 min post carrageenan challenge measured at 5 hr. In kind it is functional.
The test system of data set [7] is Rattus norvegicus. The data set is described as follows: Ulcerogenic activity in Rattus norvegicus Wistar (rat) assessed as length of lesion at 5 mg/kg, po after 6 hr (reference value: 0 mm). In kind it is toxicity, organism-based. On the set-up: dose 5 mg/kg, route oral. As to conditions: in vivo.
In data set [8] the test system is Rattus norvegicus. The experiment in a line: Ulcerogenic activity in Rattus norvegicus Wistar (rat) assessed as length of lesion at 100 mg/kg, po after 6 hr (reference value: 0 mm). As to conditions: in vivo. On the set-up: dose 100 mg/kg, route oral. In kind it is toxicity, organism-based.
For data set [9], the system named is Rattus norvegicus. The data set is described as follows: Anti-inflammatory activity in Rattus norvegicus Wistar (rat) assessed as inhibition of carrageenan-induced paw edema at 100 mg/kg, po administered 30 min post carrageenan challenge measured at 5 hr relative to control. In kind it is functional.
In data set [10] the test system is Rattus norvegicus. The data set is described as follows: Ulcerogenic activity in Rattus norvegicus Wistar (rat) assessed as length of lesion at 10 mg/kg, po after 6 hr (reference value: 0 mm). In kind it is toxicity, organism-based. As to conditions: in vivo. On the set-up: dose 10 mg/kg, route oral.
Data set [11] deals with Rattus norvegicus. The experiment in a line: Ulcerogenic activity in Rattus norvegicus Wistar (rat) assessed as length of lesion at 30 mg/kg, po after 6 hr (reference value: 0 mm). In kind it is toxicity, organism-based. On the set-up: dose 30 mg/kg, route oral. The following applies: in vivo.
Data set [12] relates to Rattus norvegicus. The experiment in a line: Anti-inflammatory activity in Rattus norvegicus Wistar (rat) assessed as inhibition of carrageenan-induced paw edema at 30 mg/kg, po administered 30 min post carrageenan challenge measured at 5 hr relative to control. In kind it is functional.

With `CC(=O)c1ccc(NS(C)(=O)=O)c(OC2CCCC2)c1`, in the data set on Rattus norvegicus [1], the inhibition in vivo (in general, the share of the control response that was lost under treatment) at 75 mg/kg was 69.2%. Also, the Activity was 1 mm in the data set with Rattus norvegicus [2], 0 mm in the data set on Rattus norvegicus [4] and 0 mm with Rattus norvegicus [7]. Also, in the data set with Rattus norvegicus [3], the inhibition in vivo at 25 mg/kg stood at 57.4%. Further, in the data set with Rattus norvegicus [5], the inhibition in vivo at 5 mg/kg is 58.7%. Besides, the ED50 (in general, the midpoint of the dose-response relation) in the data set with Rattus norvegicus [6] amounted to 2.31 mg/kg.
`CCCCCCCCOc1cc(C(C)=O)ccc1NS(C)(=O)=O`: the inhibition in vivo at 75 mg/kg in the data set on Rattus norvegicus [1] was found to be 69.9%. Moreover, the results for the Activity in the data set on Rattus norvegicus [2], in the data set with Rattus norvegicus [4] and in the data set on Rattus norvegicus [7] were 2 mm, 1 mm and 0 mm, respectively. The inhibition in vivo at 25 mg/kg in the data set on Rattus norvegicus [3] came out at 62.5%. In addition, in the data set with Rattus norvegicus [5], the inhibition in vivo at 5 mg/kg is 51.5%. The ED50 in the data set with Rattus norvegicus [6] was found to be 2.36 mg/kg.
For the compound `CCOc1cc(C(C)=O)ccc1NS(C)(=O)=O`, the inhibition in vivo at 75 mg/kg in the data set with Rattus norvegicus [1] was 66.2%. The Activity in the data set with Rattus norvegicus [2] is reported as 1 mm; in the data set with Rattus norvegicus [4], 0 mm; with Rattus norvegicus [7], 0 mm. Further, the inhibition in vivo at 25 mg/kg with Rattus norvegicus [3] is 54.6%. Also, in the data set with Rattus norvegicus [5], the inhibition in vivo at 5 mg/kg worked out at 44%. Also, the ED50 with Rattus norvegicus [6] was determined as 1.8 mg/kg.
With `CCCOc1cc(C(C)=O)ccc1NS(C)(=O)=O`, the inhibition in vivo at 75 mg/kg in the data set with Rattus norvegicus [1] came to 67.2%. The figures for the Activity in the data set on Rattus norvegicus [2], with Rattus norvegicus [4] and in the data set with Rattus norvegicus [7] were 1 mm, 1 mm and 0 mm, respectively. Besides, the inhibition in vivo at 25 mg/kg in the data set on Rattus norvegicus [3] is 62.1%. In the data set with Rattus norvegicus [5], the inhibition in vivo at 5 mg/kg was found to be 56.6%. Further, the ED50 with Rattus norvegicus [6] is 2.25 mg/kg.
For `CC(=O)c1ccc(NS(C)(=O)=O)c(O)c1`, the Activity in the data set with Rattus norvegicus [8] is 1 mm. Moreover, the inhibition in vivo at 100 mg/kg with Rattus norvegicus [9] came to 15.9%.
Consider `COc1ccc2c(c1)c(CC(=O)O)c(C)n2C(=O)c1ccc(Cl)cc1` [INDOMETHACIN], for which the Activity with Rattus norvegicus [10] is given as 19.4 mm. Moreover, the ED50 in the data set on Rattus norvegicus [6] came out at 2.2 mg/kg.
With `CS(=O)(=O)c1ccc(C2=C(c3ccccc3)C(=O)OC2)cc1` [ROFECOXIB], the Activity with Rattus norvegicus [11] turned out to be 2 mm. The inhibition in vivo at 30 mg/kg with Rattus norvegicus [12] was 82.8%. In addition, the ED50 in the data set with Rattus norvegicus [6] came to 2.61 mg/kg.
